Measurements as given in patent US12617773B2, “Azetidin-3-ylmethanol derivatives as CCR6 receptor modulators” (Idorsia Pharmaceuticals Ltd, priority 2020, dated 2026).

Each molecule was assayed against T1, human CCR6 (Homo sapiens, UniProt P51684) (assay: FLIPR assay (inhibition of CCL20-induced calcium signal)). Conditions: HEK-293 cells expressing human CCR6; mean values where determined several times; read-out: FLIPR IC50.
T1 construct: expressed in transfected cells; host or cells: HEK-293
T1 sequence (P51684 1-374): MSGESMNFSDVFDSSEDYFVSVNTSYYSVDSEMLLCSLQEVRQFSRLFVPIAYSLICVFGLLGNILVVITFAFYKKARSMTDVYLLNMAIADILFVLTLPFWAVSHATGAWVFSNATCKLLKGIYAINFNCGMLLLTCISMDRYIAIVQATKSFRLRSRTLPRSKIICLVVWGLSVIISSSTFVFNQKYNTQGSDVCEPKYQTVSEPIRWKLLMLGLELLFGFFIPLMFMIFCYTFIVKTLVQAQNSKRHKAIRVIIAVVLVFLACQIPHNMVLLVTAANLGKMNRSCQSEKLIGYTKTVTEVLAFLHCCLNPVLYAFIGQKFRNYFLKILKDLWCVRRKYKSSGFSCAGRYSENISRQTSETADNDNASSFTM
Assay type: cell-based
Summary of the method: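 IC50 values come from baseline-corrected peak calcium fluorescence after agonist. The agonist was CCL20 at 10 nM final, added to engineered human CCR6 HEK-293 cells following a 30-min, room-temperature, dark preincubation with serially diluted compound. Readings were taken in a fluorometric imaging plate reader.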
Molecule `CC(C)c1ccc([C@](O)(c2cncc(-c3nc(N4CCOCC4)no3)c2)C2(C)CN(C)C2)cc1` [Example 94, (R)-(1,3-Dimethyl-azetidin-3-yl)-(4-isopropyl-phenyl)-[5-(3-morpholin-4-yl-[1,2,4]oxadiazol-5-yl)-pyridin-3-yl]-methanol] has an IC50 of 71.1 nM.
`COC1(c2noc(-c3cncc([C@@](O)(c4ccc(C5CC5)cc4)C4(C)CN(C)C4)c3)n2)CCOCC1` [Example 95, (R)-(4-Cyclopropyl-phenyl)-(1,3-dimethyl-azetidin-3-yl)-{5-[3-(4-methoxy-tetrahydro-pyran-4-yl)-[1,2,4]oxadiazol-5-yl]-pyridin-3-yl}-methanol] gave an IC50 of 196 nM.
`CN1CC(C)([C@](O)(c2ccc(C3CC3)cc2)c2cncc(-c3nc(C45CC(CO)(C4)C5)no3)c2)C1` [Example 96] gave an IC50 of 130 nM.
`CC(C)c1ccc([C@](O)(c2cncc(-c3nc(C45CC(CO)(C4)C5)no3)c2)C2(C)CN(C)C2)cc1` [Example 97] was tested, and the IC50 was 71.3 nM.
Molecule `CC(C)c1ccc([C@](O)(c2cncc(-c3nc(C(C)(C)CO)no3)c2)C2(C)CN(C)C2)cc1` [Example 98] has an IC50 of 60 nM.
`CC(C)c1ccc([C@](O)(c2cncc(-c3nc(C(C)(C)O)no3)c2)C2(C)CN(C)C2)cc1` [Example 99] gave an IC50 of 111 nM.
In the case of `COC(C)(C)c1noc(-c2cncc([C@@](O)(c3ccc(C(C)C)cc3)C3(C)CN(C)C3)c2)n1` [Example 100], the IC50 is reported as 69.9 nM.
For `COC1(c2noc(-c3cncc([C@@](O)(c4ccc(C(C)C)cc4)C4(C)CN(C)C4)c3)n2)CCC1` [Example 101], the IC50 was 41.8 nM.
`CC(C)c1ccc([C@](O)(c2cncc(-c3nc(CC(C)(C)O)no3)c2)C2(C)CN(C)C2)cc1` [Example 102] was tested, and the IC50 was 103 nM.
Work on `CC(C)c1ccc([C@](O)(c2cncc(-c3noc(CS(C)(=O)=O)n3)c2)C2(C)CN(C)C2)cc1` [Example 103, (R)-(1,3-Dimethyl-azetidin-3-yl)-(4-isopropyl-phenyl)-[5-(5-methanesulfonylmethyl-[1,2,4]oxadiazol-3-yl)-pyridin-3-yl]-methanol] yielded an IC50 of 110 nM.
With `COCCc1nc(-c2cncc([C@@](O)(c3ccc(C(C)C)cc3)C3(C)CN(C)C3)c2)no1` [Example 104] the IC50 was 42.2 nM.
`COCc1nc(-c2cncc([C@@](O)(c3ccc(C(C)C)cc3)C3(C)CN(C)C3)c2)no1` [Example 105] was tested, and the IC50 was 43.4 nM.
In the case of `CC(C)c1ccc([C@](O)(c2cncc(-c3noc(C4CCOC4)n3)c2)C2(C)CN(C)C2)cc1` (stereo partly shown) [Example 106], the IC50 is reported as 46.7 nM.
`CC(C)c1ccc([C@](O)(c2cncc(-c3noc(C4CCOCC4)n3)c2)C2(C)CN(C)C2)cc1` [Example 107] was tested, and the IC50 was 54.3 nM.
Work on `CC(C)c1ccc([C@](O)(c2cncc(-c3noc(C4(O)CCCCC4)n3)c2)C2(C)CN(C)C2)cc1` [Example 108] yielded an IC50 of 21 nM.
Work on `CC(C)c1ccc([C@](O)(c2cncc(-c3noc(COC(C)(C)C)n3)c2)C2(C)CN(C)C2)cc1` [Example 109] yielded an IC50 of 21.2 nM.
`CC(C)c1ccc([C@](O)(c2cncc(-c3noc(CC4CCOCC4)n3)c2)C2(C)CN(C)C2)cc1` [Example 110] showed an IC50 of 39.1 nM.
Work on `CC(C)c1ccc([C@](O)(c2cncc(-c3noc(C4CCC(O)CC4)n3)c2)C2(C)CN(C)C2)cc1` (stereo partly shown) [Example 111] yielded an IC50 of 43 nM.
`CC(C)c1ccc([C@](O)(c2cncc(-c3noc(CC4(O)CCCCC4)n3)c2)C2(C)CN(C)C2)cc1` [Example 112] gave an IC50 of 38.5 nM.
For `COC1(c2nc(-c3cncc([C@@](O)(c4ccc(C(C)C)cc4)C4(C)CN(C)C4)c3)no2)CCC1` [Example 113], the IC50 was 29.8 nM.
Molecule `CC(C)c1ccc([C@](O)(c2cncc(-c3noc(C4CC45CCOCC5)n3)c2)C2(C)CN(C)C2)cc1` (stereo partly shown) [Example 114] has an IC50 of 38 nM.
With `CC(C)c1ccc([C@](O)(c2cncc(-c3noc(C4CCCOC4)n3)c2)C2(C)CN(C)C2)cc1` (stereo partly shown) [Example 115] the IC50 was 41 nM.
For `CC(C)c1ccc([C@](O)(c2cncc(-c3noc(CC4CCCO4)n3)c2)C2(C)CN(C)C2)cc1` (stereo partly shown) [Example 116], the IC50 was 40.8 nM.
Molecule `CC(C)c1ccc([C@](O)(c2cncc(-c3noc([C@@](C)(O)C(F)(F)F)n3)c2)C2(C)CN(C)C2)cc1` [Example 117] has an IC50 of 20.1 nM.
`COC(C)(C)c1nc(-c2cncc([C@@](O)(c3ccc(C(C)C)cc3)C3(C)CN(C)C3)c2)no1` [Example 118] showed an IC50 of 43.1 nM.
With `CC(C)c1ccc([C@](O)(c2cncc(-c3noc([C@H](O)C4CCCCC4)n3)c2)C2(C)CN(C)C2)cc1` [Example 119] the IC50 was 20.5 nM.
`CC(C)c1ccc([C@](O)(c2cncc(-c3noc(C4(O)CC4)n3)c2)C2(C)CN(C)C2)cc1` [Example 120] was tested, and the IC50 was 59.2 nM.
`CC(C)c1ccc([C@](O)(c2cncc(-c3noc(C(C)(C)O)n3)c2)C2(C)CN(C)C2)cc1` [Example 121] gave an IC50 of 57.7 nM.
`CC(C)c1ccc([C@](O)(c2cncc(-c3noc(C4(O)CCCC4)n3)c2)C2(C)CN(C)C2)cc1` [Example 122] showed an IC50 of 42.1 nM.
Work on `CC(C)c1ccc([C@](O)(c2cncc(-c3noc(C4CC(O)C4)n3)c2)C2(C)CN(C)C2)cc1` (stereo partly shown) [Example 123] yielded an IC50 of 46.9 nM.
For `CC(C)c1ccc([C@](O)(c2cncc(-c3noc(C4(F)CCOCC4)n3)c2)C2(C)CN(C)C2)cc1` [Example 124], the IC50 was 35.9 nM.
In the case of `CC(C)c1ccc([C@](O)(c2cncc(-c3noc([C@H]4C[C@@H](C)O[C@@H](C)C4)n3)c2)C2(C)CN(C)C2)cc1` [Example 125], the IC50 is reported as 46.9 nM.
Work on `CC(C)c1ccc([C@](O)(c2cncc(-c3noc(COC4CCOCC4)n3)c2)C2(C)CN(C)C2)cc1` [Example 126] yielded an IC50 of 84.9 nM.
`CC(C)c1ccc([C@](O)(c2cncc(-c3noc(C(C)(C)C4CCOCC4)n3)c2)C2(C)CN(C)C2)cc1` [Example 127] showed an IC50 of 32.4 nM.
In the case of `CC(C)c1ccc([C@](O)(c2cncc(-c3noc(CCC4CCOCC4)n3)c2)C2(C)CN(C)C2)cc1` [Example 128], the IC50 is reported as 40.3 nM.
With `CC(C)c1ccc([C@](O)(c2cncc(-c3noc(C4(O)CCC4)n3)c2)C2(C)CN(C)C2)cc1` [Example 129] the IC50 was 35.9 nM.
`CC(C)c1ccc([C@](O)(c2cncc(-c3noc(CC(C)(C)O)n3)c2)C2(C)CN(C)C2)cc1` [Example 130] was tested, and the IC50 was 74.7 nM.
Molecule `CC(C)c1ccc([C@](O)(c2cncc(-c3noc(C4CC5CCC4O5)n3)c2)C2(C)CN(C)C2)cc1` (stereo partly shown) [Example 131] has an IC50 of 60.8 nM.
`CC(C)c1ccc([C@](O)(c2cncc(-c3noc(COC4(C)CCOCC4)n3)c2)C2(C)CN(C)C2)cc1` [Example 132] was tested, and the IC50 was 50.1 nM.
Molecule `CC(C)c1ccc([C@](O)(c2cncc(-c3noc(C4COC4)n3)c2)C2(C)CN(C)C2)cc1` [Example 133] has an IC50 of 74.5 nM.
In the case of `COCC(C)(C)c1nc(-c2cncc([C@@](O)(c3ccc(C(C)C)cc3)C3(C)CN(C)C3)c2)no1` [Example 134, (R)-(1,3-Dimethyl-azetidin-3-yl)-(4-isopropyl-phenyl)-{5-[5-(2-methoxy-1,1-dimethyl-ethyl)-[1,2,4]oxadiazol-3-yl]-pyridin-3-yl}-methanol], the IC50 is reported as 62 nM.
Work on `CC(C)c1ccc([C@](O)(c2cncc(-c3noc(C(C)(C)CO)n3)c2)C2(C)CN(C)C2)cc1` [Example 135] yielded an IC50 of 74 nM.
`COC(C)(C)Cc1nc(-c2cncc([C@@](O)(c3ccc(C(C)C)cc3)C3(C)CN(C)C3)c2)no1` [Example 136] gave an IC50 of 123 nM.
`CC(C)c1ccc([C@](O)(c2cncc(-c3noc(CC4(O)CCC4)n3)c2)C2(C)CN(C)C2)cc1` [Example 137] was tested, and the IC50 was 60.3 nM.
In the case of `COCC1(Cc2nc(-c3cncc([C@@](O)(c4ccc(C(C)C)cc4)C4(C)CN(C)C4)c3)no2)CC1` [Example 138], the IC50 is reported as 45.8 nM.
Molecule `CC(C)c1ccc([C@](O)(c2cncc(-c3noc(CCn4cccn4)n3)c2)C2(C)CN(C)C2)cc1` [Example 139, (R)-(1,3-Dimethyl-azetidin-3-yl)-(4-isopropyl-phenyl)-{5-[5-(2-pyrazol-1-yl-ethyl)-[1,2,4]oxadiazol-3-yl]-pyridin-3-yl}-methanol] has an IC50 of 66.6 nM.
`[2H]C([2H])([2H])C(=O)NCCc1nc(-c2cncc([C@@](O)(c3ccc(C(C)C)cc3)C3(C)CN(C)C3)c2)no1` [Example 140, (R)—N-(2-(3-(5-((1,3-dimethylazetidin-3-yl)(hydroxy)(4-isopropylphenyl)methyl)pyridin-3-yl)-1,2,4-oxadiazol-5-yl)ethyl)acetamide-2,2,2-d3] was tested, and the IC50 was 681 nM.
`[2H]C([2H])([2H])C(=O)NC(C)(C)Cc1nc(-c2cncc([C@@](O)(c3ccc(C(C)C)cc3)C3(C)CN(C)C3)c2)no1` [Example 141] gave an IC50 of 211 nM.
`CC(C)c1ccc([C@](O)(c2cncc(-c3noc(C4CCN(C(=O)CO)CC4)n3)c2)C2(C)CN(C)C2)cc1` [Example 142] gave an IC50 of 274 nM.
`[2H]C([2H])([2H])C(=O)N1CCC(c2nc(-c3cncc([C@@](O)(c4ccc(C(C)C)cc4)C4(C)CN(C)C4)c3)no2)CC1` [Example 143] was tested, and the IC50 was 188 nM.
For `CC(C)c1ccc([C@](O)(c2cncc(-c3noc(CCN(C)C(=O)CO)n3)c2)C2(C)CN(C)C2)cc1` [Example 144, N-[2-(3-{5-[(R)-(1,3-Dimethyl-azetidin-3-yl)-hydroxy-(4-isopropyl-phenyl)-methyl]-pyridin-3-yl}-[1,2,4]oxadiazol-5-yl)-ethyl]-2-hydroxy-N-methyl-acetamide], the IC50 was 376 nM.
`[2H]C([2H])([2H])C(=O)N(C)CCc1nc(-c2cncc([C@@](O)(c3ccc(C(C)C)cc3)C3(C)CN(C)C3)c2)no1` [Example 145, (R)—N-(2-(3-(5-((1,3-dimethylazetidin-3-yl)(hydroxy)(4-isopropylphenyl)methyl)pyridin-3-yl)-1,2,4-oxadiazol-5-yl)-ethyl)-N-methylacetamide-d3] showed an IC50 of 274 nM.
